Laboratory results as given in US20190055517A1, “Cell Line of M2c Macrophage and Its Applications” (National Pingtung University of Science and Technology, priority 2017, published 2019).

Test system: M2 cell line from murine bone marrow
Assay: Efferocytosis of CFSE-marked apoptotic cells by macrophages (flow cytometry PE-MERTK / CFSE)
Type: cell-based
Conditions: apoptotic cells : M2 3:2, 2 hours, p<0.05, FIG. 21
Experimental: Efficacy evaluation of apoptotic cells efferocytosis in macrophages: method of the evaluation for effectiveness of apoptotic cells efferocytosis in M2 macrophage induced differentiated by different drugs were slightly modified based on previous studies (Li et al., Yancey et al., and Jehle et al; Liu st al and Lilis at al 2008). Detail steps are described below. Use 3 μM CFSE Cell Trace (Thermofisher, USA) to mark RAW264.7 macrophage cell line for 20 minutes under 37° C., then wash with PBS. Culture cells for 24 hours, then use the 1.5 mM H2O2 following the aforementioned steps to induce RAW264.7 macrophage cell to differentiate into apoptotic cells. […] Lastly, use flow cytometry (FACS BD ARIA II, BD Bioscience, USA) to examine fluorescence performance, if both PE-MERTK and CFSE appear positive, the cell will be identified as the M2C macrophages that efferocytosed the aforementioned apoptotic cells.
Results of fluorescence expression of stained apoptotic cells, macrophages and efferocytotic macrophages detected by flow cytometry are shown in FIG. 20. Apoptotic cells induced by H2O2 (1.5 mM) and express FITC fluorescence after FITC-CFSE staining are distributed in P4 region. Differentiated M2 macrophage expresses MERTK are detected by the expressed PE fluorescence after PE-MERTK staining, which is distributed in P5 region. […]

Compound: O=C(O)[C@H]1O[C@@H](Oc2cc3oc(-c4ccccc4)cc(=O)c3c(O)c2O)[C@H](O)[C@@H](O)[C@@H]1O [Baicalin]
- mean fluorescence intensity of MERTK of single M2 macrophage (cells expressing CFSE): significantly higher than other drug treated groups and control group
- mean fluorescence intensity of CFSE of single M2 macrophage (cells expressing MERTK): significantly higher than other drug treated groups and control group
